This is an account of results in article PMC7433010, “Exploration of multi‐target effects of 3‐benzoyl‐5‐hydroxychromen‐2‐one in Alzheimer’s disease cell and mouse models” (Aging Cell, 2020).

For one experiment, the system named is BDNF. As to the kind of experiment: Western blot of BDNF in ∆K280 TauRD‐DsRed SH‐SY5Y cells. In kind it is cell-based, human. Particulars: 1 µM, uninduced 100%. The method, then: (§1) Total proteins from ∆K280 TauRD-DsRed SH-SY5Y cells were obtained using a RIPA buffer containing 50 mM Tris-HCl (pH8.0), 150 mM NaCl, 2 mM EDTA (pH8.0), 50 mM NaF, 0.1% SDS, 0.5% sodium deoxycholate, 1% NP40, and a protease inhibitor cocktail (Sigma-Aldrich). After sonication and sitting on ice for 20 min, the lysates were centrifuged at 14,000 × g for 30 min at 4°C. Protein concentrations were determined using a protein assay kit (Bio-Rad, Hercules, CA, USA), with albumin as a standard. Total proteins (20 µg) were electrophoresed on 10% or 12% SDS-polyacrylamide gel and transferred onto polyvinylidene difluoride (PVDF) membranes (Sigma-Aldrich) through reverse electrophoresis. […] Subsequently, immune complexes were detected using a horseradish peroxidase-conjugated goat anti-mouse or goat anti-rabbit IgG antibody (1:5000; GeneTex, Irvive, CA, USA) and a chemiluminescent substrate (Millipore).

A further experiment relates to NRF2. As to the kind of experiment: Western blot of NRF2 in hippocampus of STZ‐treated 3 × Tg‐AD mice. It is filed as in vivo, mouse. Particulars: STZ 53%, – STZ 100%. How it is done: (§2) In addition, isolated hippocampal and cortex tissues from transgenic mice (as described in Animal studies) were homogenized and extracted proteins (10 µg) were separated and blotted. After being blocked, the membranes were probed with antibody against mouse NRF2 (1:500; Sigma-Aldrich), CREB (1:500; Millipore), pCREB (S133) (1:1000; Millipore), or GAPDH (1:1000; MDBio), and the immune complexes detected as described above.
(§3) Mice harboring APPSwe, PS1M146V, and […] transgenes (3×Tg-AD) (Oddo et al., 2003) were purchased from the Jackson Laboratory (004807; Bar Harbor, ME, USA). Six-month-old male homozygous 3×Tg-AD mice were group housed at 20–25°C and 60% relative humidity under a daily 12-h light/12-h dark cycle, with assess to food and water ad libitum. Mice were randomly divided into 3 groups: – streptozocin (STZ), STZ, and STZ/LM-031 (n = 10 per group). STZ-induced hyperglycemia was used to accelerate the development of AD phenotype (Chen et al., 2014). Briefly, the mice were fasted for 12 h each day prior to intraperitoneal (i.p.) injection of STZ ([…]; Sigma-Aldrich) or vehicle (0.1 M sodium citrate pH4.5) for 4 times (days 2, 3, 9, and 10) (Chen et al., 2019). Mouse body weight was measured and blood glucose level was measured on days 1, 8, 15, 22, and 29 using a blood glucose meter (Bioland Technology, Taipei, Taiwan). […]

The next experiment relates to CREB. As to the kind of experiment: Western blot of CREB in hippocampus of STZ‐treated 3 × Tg‐AD mice. In kind it is in vivo, mouse. Particulars: among the three groups. How it is done:
as §2, §3

Another experiment relates to BAX. Kind of experiment: Western blot of BAX in ∆K280 TauRD‐DsRed SH‐SY5Y cells. It is filed as cell-based, human. Particulars: induced untreated 120%, uninduced 100%. The method, then: as §1
For a further experiment, the system named is ERK1/2. Kind of experiment: Western blot of ERK1/2 in ∆K280 TauRD‐DsRed SH‐SY5Y cells. It is filed as cell-based, human. The method, then: as §1
Figure S4. ΔK280 TauRD-DsRed SH-SY5Y cells. […] On day 9, neurite outgrowth and caspase 3 activity were measured. In addition, expression of HSPB1, NRF2, and CREB pathways were assessed. (b) Relative AKT, pAKT, ERK, and pERK protein levels analyzed through immunoblotting. […]

For experiment [1], the system named is STZ‐induced hyperglycemic 3 × Tg‐AD mice. As to the kind of experiment: Morris water maze task in STZ‐treated 3 × Tg‐AD mice. In kind it is in vivo, mouse. Conditions: for Morris water maze latency to hidden platform: 40 mg/kg i.p. How it is done:
Mice harboring APPSwe, PS1M146V, and […] transgenes (3×Tg-AD) (Oddo et al., 2003) were purchased from the Jackson Laboratory (004807; Bar Harbor, ME, USA). Six-month-old male homozygous 3×Tg-AD mice were group housed at 20–25°C and 60% relative humidity under a daily 12-h light/12-h dark cycle, with assess to food and water ad libitum. Mice were randomly divided into 3 groups: – streptozocin (STZ), STZ, and STZ/LM-031 (n = 10 per group). STZ-induced hyperglycemia was used to accelerate the development of AD phenotype (Chen et al., 2014). Briefly, the mice were fasted for 12 h each day prior to intraperitoneal (i.p.) injection of STZ ([…]; Sigma-Aldrich) or vehicle (0.1 M sodium citrate pH4.5) for 4 times (days 2, 3, 9, and 10) (Chen et al., 2019). Mouse body weight was measured and blood glucose level was measured on days 1, 8, 15, 22, and 29 using a blood glucose meter (Bioland Technology, Taipei, Taiwan). LM-031 (40 mg/kg) or vehicle (DMSO:Cremophor EL:0.9% saline = 1:2:7) was intraperitoneally injected every day for 22 days from days 15 to 36. All animal procedures were ethically approved by the Institutional Animal Care and Use Committee of National Taiwan Normal University, Taipei, Taiwan (Permit Number: 103002) and were conducted in compliance with the ARRIVE (Animal Research: Reporting In Vivo Experiments) guidelines.
The water maze apparatus consisted of a circular pool with diameter 100 cm and height 76 cm, a submerged platform 1 cm below the water surface, four types of cues providing distal landmarks in the testing room, and a video camera suspended 250 cm above the center of the pool and connected to a video tracking system. The pool was filled up with water (24–26°C, 35 cm high) rendered opaque by the addition of nontoxic white paint. Mice relied on external cues to find the hidden platform in opaque water. One day prior to spatial training, all mice underwent pretraining to examine animals’ swimming ability and to acclimatize them to the pool. For pretraining (day 29), each mouse was placed in the pool to swim for 60 sec. After three trials, a platform was placed in the center of the pool and the mouse was allowed to remain there for 20 sec. For training (days 30–33), the platform was placed in a quadrant and each mouse received four trials per day for 4 consecutive days, with a cue signaling the platform position. The submerged platform remained there and entry points changed semi-randomly throughout all trials. The trial ended either when the mouse climbed onto the platform or when 60 seconds had elapsed. At the end of each trial the mouse was placed on the platform and faced the cue for 20 sec, learning where the platform was. […] All the data were analyzed by PhenoTracker.

With `O=C(c1ccccc1)c1cc2c(O)cccc2oc1=O` [LM‐031, 3‐benzoyl‐5‐hydroxychromen‐2‐one], the “BDNF protein level, 14 kDa” value in the experiment with BDNF (induced untreated 82%) came to 155%. Also, in the experiment with BDNF (induced untreated 83%), the “BDNF protein level, 32 kDa” value is 101%. In the experiment with NRF2, the “NRF2 level in hippocampus” value worked out at 92%. In addition, the “relative total CREB level in hippocampus” value with CREB was “not significantly different”. Further, the BAX expression with BAX is 76%. In the experiment with ERK1/2, the ERK1/2 level result is “not notably affected”. For the same compound, in experiment [1] (probe trials 2 and 48 hr (days 34 and 36), STZ 17 s, – STZ 26 s), the “Morris water maze duration in target quadrant” value is recorded as 24 s. Further, the “Morris water maze latency to hidden platform” value in experiment [1] (testing on day 34, STZ 39 s, – STZ 21 s) is listed as 26 s; in experiment [1] (training day 3, STZ 43 s, – STZ 31 s) it was 31 s; in experiment [1] (training day 4, STZ 40 s, – STZ 26 s) it was 30 s.
